According to US6274620A, “Thiophene integrin inhibitors” (BioChem Pharma Inc., priority 2000, dated 2001):
Where a name gives a salt, the structure may show the parent alone.

Assays:
αIIbβ3 = target: T1, αIIbβ3 (Homo sapiens, UniProt P05106+P08514); experiment: Solid-phase assay: biotinylated-fibrinogen binding to immobilized αIIbβ3; conditions: biotinylated-fibrinogen 10 nM, 2 hours at 37° C, 1 mM CaCl2, read-out: IC50 αIIbβ
T1 construct: purchased Calbiochem
Protocol: Assay 1. Fibrinogen Binding to Immobilized αIIbβ3 and αvβ3
(§1) The wells of plastic microtiter plates were coated overnight at 4° C. with purified active αIIbβ3 (Calbiochem) or placental αvβ3 at 0.5 ug/mL (100 uL/well) in a buffer containing 150 mM NaCl, 20 mM Tris, pH 7.4, 1 mM MgCl2, 0.2 mM MnCl2, and including 1 mM CaCl2 for αIIbβ3 Blocking of nonspecific sites was achieved by incubating the wells with 35 mg/mL bovine serum albumin (BSA) for at least 2 hours at 37° C. Biotinylated-fibrinogen (10 nM) was added in 0.2 mL binding buffer (100 mM NaCl, 50 mM Tris, pH 7.4, 1 mM MgCl2, 0.2 mM MnCl2 and 1 mg/mL BSA including 1 mM CaCl2 for αIIbβ3) to the wells in triplicate in the absence or presence of increasing concentrations of compounds of interest (0.001-100 uM) and further incubated for 2 hours at 37° C. Nonbound fibrinogen was removed by five washes with binding buffer. Avidin conjugated to alkaline phosphatase (Sigma), diluted in binding buffer, was added and incubated for two hours at 37° C. The plates were washed five times with binding buffer, and after addition of the substrate PNPP (Pierce), the enzyme activity was measured by the absorbance at 405 nm. The concentration of inhibitor required to inhibit 50% of biotinylated-fibrinogen binding was defined as IC50 determined by a nonlinear, sigmoidal dose response variable slope from the GraphPad Prism software.

αvβ3 [1] = target: T2, αvβ3 (Homo sapiens, UniProt P05106+P06756); experiment: Cell attachment assay, αvβ3; assay type: cell-based; conditions: 1 hour at 37° C
T2 sequence (P06756 31-889 limits assumed): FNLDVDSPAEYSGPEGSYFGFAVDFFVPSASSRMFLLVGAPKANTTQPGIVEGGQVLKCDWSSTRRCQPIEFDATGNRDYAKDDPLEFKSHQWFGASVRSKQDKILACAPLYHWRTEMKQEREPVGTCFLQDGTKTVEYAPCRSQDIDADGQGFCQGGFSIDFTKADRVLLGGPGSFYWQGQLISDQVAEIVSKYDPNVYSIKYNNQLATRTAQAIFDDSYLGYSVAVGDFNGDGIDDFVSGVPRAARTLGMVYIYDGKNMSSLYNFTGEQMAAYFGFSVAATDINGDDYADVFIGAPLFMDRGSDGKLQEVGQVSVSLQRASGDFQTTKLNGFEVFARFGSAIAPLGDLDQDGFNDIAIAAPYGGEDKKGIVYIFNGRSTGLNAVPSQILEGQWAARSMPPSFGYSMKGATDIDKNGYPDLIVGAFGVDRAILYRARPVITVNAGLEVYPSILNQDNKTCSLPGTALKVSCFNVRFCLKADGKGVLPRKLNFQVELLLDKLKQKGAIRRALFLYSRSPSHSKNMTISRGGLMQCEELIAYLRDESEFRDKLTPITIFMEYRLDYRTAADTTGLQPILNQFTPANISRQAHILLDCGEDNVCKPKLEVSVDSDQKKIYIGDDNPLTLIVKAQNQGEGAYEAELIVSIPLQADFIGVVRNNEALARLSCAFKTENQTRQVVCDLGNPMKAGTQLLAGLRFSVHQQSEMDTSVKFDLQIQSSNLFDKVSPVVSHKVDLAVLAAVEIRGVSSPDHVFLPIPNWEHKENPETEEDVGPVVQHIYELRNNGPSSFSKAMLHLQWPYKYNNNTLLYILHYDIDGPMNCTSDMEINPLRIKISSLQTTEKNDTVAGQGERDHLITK
T2 sequence (P06756 891-1048 limits assumed): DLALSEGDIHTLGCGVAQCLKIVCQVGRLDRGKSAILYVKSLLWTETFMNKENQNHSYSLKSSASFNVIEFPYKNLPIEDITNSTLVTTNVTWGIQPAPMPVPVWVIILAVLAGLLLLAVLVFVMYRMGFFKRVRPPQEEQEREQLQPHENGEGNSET
T2 sequence (P05106 27-788): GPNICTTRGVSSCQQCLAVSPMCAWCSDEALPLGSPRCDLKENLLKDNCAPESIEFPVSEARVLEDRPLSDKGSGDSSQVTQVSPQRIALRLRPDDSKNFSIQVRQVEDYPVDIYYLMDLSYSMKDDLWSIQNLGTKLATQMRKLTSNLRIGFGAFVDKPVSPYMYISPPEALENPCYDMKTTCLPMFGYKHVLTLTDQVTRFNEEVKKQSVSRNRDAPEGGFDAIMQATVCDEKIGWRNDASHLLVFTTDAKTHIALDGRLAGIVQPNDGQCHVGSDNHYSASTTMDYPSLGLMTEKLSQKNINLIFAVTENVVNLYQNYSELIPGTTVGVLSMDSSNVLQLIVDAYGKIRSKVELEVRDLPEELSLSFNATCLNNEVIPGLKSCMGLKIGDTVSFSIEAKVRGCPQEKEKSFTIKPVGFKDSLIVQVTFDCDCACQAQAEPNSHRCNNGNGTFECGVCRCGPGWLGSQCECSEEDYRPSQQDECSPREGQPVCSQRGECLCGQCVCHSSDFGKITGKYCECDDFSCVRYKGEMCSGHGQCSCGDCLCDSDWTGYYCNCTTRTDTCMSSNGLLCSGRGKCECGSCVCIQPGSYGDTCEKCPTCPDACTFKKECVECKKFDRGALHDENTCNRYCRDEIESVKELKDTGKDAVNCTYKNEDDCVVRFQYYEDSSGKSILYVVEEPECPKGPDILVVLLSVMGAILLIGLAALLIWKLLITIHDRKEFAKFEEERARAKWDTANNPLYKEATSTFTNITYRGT
Protocol: (§2) The wells of 96-well plates (Immunolon) were coated, by incubation overnight at 4° C., with 5 ug/mL vitronectin, 2 ug/mL osteopontin, or fibronectin or 10 mg/mL BSA in PBS. The protein solution was flicked out and the wells were blocked with 10 mg/mL BSA (0.1 mL) for 1-2 hours at 37° C. Cells HT29, K562, or K562 transfected with αvβ3 (Blystone et al., 1994) were loaded with a fluorescent marker, 5-chloromethylfluorescein diacetate (Molecular Probes, Eugene, OR) for 1 hour at 37° C., then incubated in fresh medium without the fluorescent marker for 1 hour. Cells were lifted with trypsin-EDTA and washed two times with Hank's balanced salt solution minus cations (Sigma) supplemented with 1 mM MgCl2 Cells (75,000 cells/well) were added to coated plates in triplicate and allowed to attach at 37° C. for 1 hour in the presence or absence of specific antibodies (5 ug/mL) or 10-fold dilutions of compounds of interest starting at 10 uM. Nonadherent cells were removed by gentle washing twice with PBS. The adherent cells were solubilized with 1% triton x-100 and detected using a fluorescence plate reader (DYNEX Technologies). The number of attached cells was calculated based upon standard curves for each cell line used in the experiment. Non-specific cell attachment (attachment to wells coated with BSA) was always less than 5%.

αvβ5 = target: T3, αvβ5 (Homo sapiens, UniProt P06756+P18084); experiment: Cell attachment assay, αvβ5; assay type: cell-based; conditions: 1 hour at 37° C
T3 construct: Cells HT29, K562, or K562 transfected with αvβ3; endogenous in cells; host or cells: HT29
T3 sequence (P06756 31-889 limits assumed): as the sequence (P06756 31-889 limits assumed) above
T3 sequence (P06756 891-1048 limits assumed): as the sequence (P06756 891-1048 limits assumed) above
T3 sequence (P18084 24-799): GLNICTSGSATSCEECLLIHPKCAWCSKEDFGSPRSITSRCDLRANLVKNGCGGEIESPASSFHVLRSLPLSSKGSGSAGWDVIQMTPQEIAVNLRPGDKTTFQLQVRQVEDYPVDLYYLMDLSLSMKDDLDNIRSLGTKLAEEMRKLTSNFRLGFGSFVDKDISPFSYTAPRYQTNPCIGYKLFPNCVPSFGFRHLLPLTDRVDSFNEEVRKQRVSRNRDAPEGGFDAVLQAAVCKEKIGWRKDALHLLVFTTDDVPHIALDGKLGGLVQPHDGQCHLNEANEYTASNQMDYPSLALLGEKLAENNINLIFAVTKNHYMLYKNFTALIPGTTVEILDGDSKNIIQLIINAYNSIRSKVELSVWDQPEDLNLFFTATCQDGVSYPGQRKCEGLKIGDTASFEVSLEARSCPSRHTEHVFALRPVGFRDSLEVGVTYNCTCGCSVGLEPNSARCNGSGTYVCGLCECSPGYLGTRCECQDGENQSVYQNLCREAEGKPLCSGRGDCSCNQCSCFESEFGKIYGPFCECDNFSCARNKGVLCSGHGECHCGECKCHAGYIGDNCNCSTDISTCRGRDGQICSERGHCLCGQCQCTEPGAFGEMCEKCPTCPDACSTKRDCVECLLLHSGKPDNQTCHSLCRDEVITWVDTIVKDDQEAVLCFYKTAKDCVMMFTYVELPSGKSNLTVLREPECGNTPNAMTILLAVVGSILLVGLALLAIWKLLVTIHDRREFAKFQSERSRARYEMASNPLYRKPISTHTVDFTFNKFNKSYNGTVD
Protocol: as §2

α5β1 = target: T4, α5β1 (Homo sapiens, UniProt P05556+P08648); experiment: Cell attachment assay, α5β1; assay type: cell-based; conditions: 1 hour at 37° C
T4 construct: Cells HT29, K562, or K562 transfected with αvβ3; endogenous in cells; host or cells: K562
Protocol: as §2

HMVEC = experiment: Cytotoxicity (MTT), HMVEC; assay type: cell-based; conditions: 72 hours, 5000 cells/well
Protocol: (§3) Assay 3. Cytotoxicity (MTT)
(§4) The wells of microtiter plates were seeded with 2000 cells/well T24, 2500 cells/well HT29 or 5000 cells/well HMVEC (Cell Systems) in 100 uL, followed by an overnight culture for cell adhesion. The next day, the media is supplemented with 100 uL of 10-fold dilution of compound of interest starting at 10 uM. Following culture for 72 hours, 3-(4, 5-dimethyl-2-thiazolyl)-2, 5-diphenyltetrazolium bromide (MTT; Sigma) at 2 mg/mL was added to each well (50 uL/well) and further incubated for 4 hours at 37° C. The medium was flicked out and 200 uL of a 1:1 solution of ethanol:acetone followed by 25 uL of glycine buffer (0.1 M glycine, 0.1M NaCl, pH 10.5) is added and the color measured by the absorbance at 570 nm.

HT29 = experiment: Cytotoxicity (MTT), HT29; assay type: cell-based; conditions: Homo sapiens, HT-29, 72 hours, 2500 cells/well
Protocol: as §3, §4

B16F10 = experiment: Cytotoxicity (MTT), B16F10; assay type: cell-based; conditions: Mus musculus, B16-F10, 72 hours
Protocol: [The source words this procedure for another cell line and reports this cell line under the same test.] as §3, §4

αvβ3 [2] = target: T2, αvβ3; experiment: Solid-phase assay: biotinylated-fibrinogen binding to immobilized αvβ3; parameters: placental αvβ3; from tissue; host or cells: placenta; conditions: for IC50: Solid Phase Assay, biotinylated-fibrinogen 10 nM, 2 hours at 37° C; for Selectivity: αIIbβ3 vs αvβ3 solid phase IC50
Protocol: as §1, with “Assay 1. Fibrinogen Binding to Immobilized αIIbβ3 and αvβ3 (Solid-Phase Assays) The wells” for “The wells”

T1 sequence (P08514 32-887 limits assumed): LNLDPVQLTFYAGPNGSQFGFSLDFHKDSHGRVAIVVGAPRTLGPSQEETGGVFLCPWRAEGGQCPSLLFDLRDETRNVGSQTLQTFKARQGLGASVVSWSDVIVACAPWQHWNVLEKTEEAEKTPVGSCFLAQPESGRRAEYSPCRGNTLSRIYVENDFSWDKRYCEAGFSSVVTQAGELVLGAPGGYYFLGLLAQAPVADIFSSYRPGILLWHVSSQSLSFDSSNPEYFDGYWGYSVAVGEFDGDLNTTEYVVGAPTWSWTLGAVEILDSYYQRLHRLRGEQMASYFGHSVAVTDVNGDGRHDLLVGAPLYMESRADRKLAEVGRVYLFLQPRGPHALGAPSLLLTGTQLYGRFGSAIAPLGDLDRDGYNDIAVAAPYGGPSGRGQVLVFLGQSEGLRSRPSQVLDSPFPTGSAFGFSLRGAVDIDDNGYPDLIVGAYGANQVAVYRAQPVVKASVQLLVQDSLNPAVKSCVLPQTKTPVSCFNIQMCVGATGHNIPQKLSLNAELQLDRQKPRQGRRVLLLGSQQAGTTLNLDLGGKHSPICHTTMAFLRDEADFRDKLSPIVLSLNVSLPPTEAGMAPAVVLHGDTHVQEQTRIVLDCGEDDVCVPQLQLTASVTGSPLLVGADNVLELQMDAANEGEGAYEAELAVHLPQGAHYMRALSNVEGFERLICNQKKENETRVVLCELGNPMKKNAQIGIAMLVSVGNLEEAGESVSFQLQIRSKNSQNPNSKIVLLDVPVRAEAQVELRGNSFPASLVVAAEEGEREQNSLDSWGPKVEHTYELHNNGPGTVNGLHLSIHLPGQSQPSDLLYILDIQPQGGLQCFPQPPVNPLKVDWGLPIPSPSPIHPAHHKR
T1 sequence (P08514 891-1039 limits assumed): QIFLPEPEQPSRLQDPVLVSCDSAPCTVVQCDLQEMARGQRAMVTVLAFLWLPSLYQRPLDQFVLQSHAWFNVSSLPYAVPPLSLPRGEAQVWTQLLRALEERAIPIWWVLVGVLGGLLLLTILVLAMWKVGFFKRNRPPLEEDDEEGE
T1 sequence (P05106 27-788): as the sequence (P05106 27-788) above

Row | Compound | IC50 (αIIbβ3) | IC50 (αvβ3 [1]) | IC50 (αvβ5) | IC50 (α5β1) | IC50 (αvβ3 [2]) | Selectivity (αvβ3 [2]) | IC50 (HMVEC) | IC50 (HT29) | IC50 (B16F10)
1 | Cc1cc(C)c(S(=O)(=O)N[C@@H](CNC(=O)c2ccc(-c3cccc(CNC(=N)N)c3)s2)C(=O)O)c(C)c1 [Compound F-2, 3-{[5-(3-Guanidinomethyl-phenyl)-thiophene-2-carbonyl]-amino}-2-(2,4,6-trimethyl-benzenesulfonylamino)-propionic acid trifluoroacetic acid salt] | 0.25 nM | 2.9 nM | 11 nM | 71 nM | 8.2 nM | 0.03 | 31 nM | 4600 nM | 190 nM
2 | CCOC(=O)[C@H](CNC(=O)c1ccc(-c2cccc(NC(=N)N)c2)s1)NS(=O)(=O)c1c(C)cc(C)cc1C [AB-2, 5-(3-Guanidino-phenyl)-thiophene-2-carboxylic acid [2-carbamoyl-2-(2,4,6-trimethyl-benzenesulfonylamino)-ethyl]-carboxylic acid ethyl ester] | – | – | – | – | 104 nM | – | – | – | –
3 | Cc1cc(C)c(S(=O)(=O)NC(CNC(=O)c2ccc(-c3cccc(NC(=N)N)c3)s2)C(=O)Nc2nccs2)c(C)c1 (stereo not shown) [Compound X-5, 5-(3-Guanidino-phenyl)-thiophene-2-carboxylic acid [2-(thiazol-2-ylcarbamoyl)-2-(2,4,6-trimethyl-benzenesulfonylamino)-ethyl]-amide hydrochloride salt] | – | – | – | – | 360 nM | – | – | – | –
4 | Cc1cc(C)c(S(=O)(=O)NC(CNC(=O)c2ccc(-c3cccc(NC(=N)N)c3)s2)C(N)=O)c(C)c1 (stereo not shown) [AC-1, 5-(3-Guanidino-phenyl)-thiophene-2-carboxylic acid [2-carbamoyl-2-(2,4,6-trimethyl-benzenesulfonylamino)-ethyl]-amide hydrochloride salt] | – | – | – | – | 290 nM | – | – | – | –
5 | Cc1cc(C)c(S(=O)(=O)NC(CNC(=O)c2ccc(-c3cccc(NC(=N)N)c3)s2)C(N)=O)c(C)c1 (stereo not shown) [AB-4, 5-(3-Guanidino-phenyl)-thiophene-2-carboxylic acid [2-carbamoyl-2-(2,4,6-trimethyl-benzenesulfonylamino)-ethyl]-amide hydrochloride salt] | – | – | – | – | 36.3 nM | – | – | – | –

The next compounds have a lower IC50 (αvβ3 [2]) than those just listed; values first:

Row | IC50 (αIIbβ3) | IC50 (αvβ3 [1]) | IC50 (αvβ5) | IC50 (α5β1) | IC50 (αvβ3 [2]) | Selectivity (αvβ3 [2]) | Compound | IC50 (HMVEC) | IC50 (HT29) | IC50 (B16F10)
6 | 1.1 nM | 0.018 nM | 1.6 nM | 34 nM | 1.9 nM | 0.6 | Cc1cc(C)c(S(=O)(=O)N[C@@H](CNC(=O)c2ccc(-c3cccc(NC(=N)N)c3)s2)C(=O)O)c(C)c1 [Compound M-3, 3-{[5-(3-Guanidino-phenyl)-thiophene-2-carbonyl]-amino}-2-(2,4,6-trimethyl-benzenesulfonylamino)-propionic acid (trifluoroacetic acid salt)] | 140 nM | 6900 nM | 260 nM
7 | 0.55 nM | 0.18 nM | 72 nM | 640 nM | 2.7 nM | 0.2 | N=C(N)NCc1cccc(-c2ccc(C(=O)NC[C@H](NS(=O)(=O)c3ccccc3)C(=O)O)s2)c1 [Compound E-2, 2-Benzenesulfonylamino-3-{[5-(3-guanidinomethyl-phenyl)-thiophene-2-carbonyl]-amino}-propionic acid trifluoroacetic acid salt] | 200 nM | > 10000 nM | 1300 nM
8 | 0.54 nM | 1.5 nM | 6 nM | 6.1 nM | 0.5 nM | 1 | Cc1cc(C)c(S(=O)(=O)N[C@@H](CNC(=O)c2ccc(/C=C/CNC(=N)N)s2)C(=O)O)c(C)c1 [Compound U-2, (S)-3-{[5-(3-Guanidino-(E)-propenyl)-thiophene-2-carbonyl]-amino}-2-(2,4,6-trimethyl-benzenesulfonylamino)-propionic acid trifluoroacetic acid salts] | 26 nM | 4800 nM | 180 nM
9 | 1.4 nM | 2.8 nM | 6.4 nM | 80 nM | 1.5 nM | 1 | N=C(N)Nc1cccc(-c2ccc(C(=O)NC[C@H](NS(=O)(=O)c3ccccc3)C(=O)O)s2)c1 [Compound K-3, 2-Benzenesulfonylamino-3-{[5-(3-guanidino-phenyl)-thiophene-2-carbonyl]-amino}-propionic acid (trifluoroacetic acid salt)] | 45 nM | 5100 nM | 320 nM
